Reference: US8841466B2, “Series of artemisinin derivatives and process for preparation thereof” (Council of Scientific & Industrial Research, priority 2010, dated 2014)

How the values were obtained:
Prostrate PC-3 = experiment: In vitro cytotoxicity (sulforhodamine B) against human cancer cell lines, Prostrate PC-3; assay type: cell-based; conditions: read-out: % GROWTH INHIBITION Prostrate PC-3; for inhibition at 50 µM: Conc 5 × 10^−5 M, 48 hours
Description: (§1) The human cancer cell lines procured from National Cancer Institute, Frederick, U.S.A., were used in present study. Cells were grown in tissue culture flasks in complete growth medium (RPMI-1640 medium with 2 mM glutamine, 100 μg/mL streptomycin, pH 7.4, sterilized by filtration and supplemented with 10% fetal bovine serum and 100 units/ml penicillin before use) at 37° C. in an atmosphere of 5% CO2 and 90% relative humidity in a carbon dioxide incubator. The cells at subconfluent stage were harvested from the flask by treatment with trypsin (0.05% in PBS containing 0.02% EDTA) for determination of cytotoxicity. The cell suspension of the required cell density was prepared in complete growth medium with gentamycin (50 μg/mL) for determination of cytotoxicity.
(§2) Stock solutions of 2×10^−2M of test materials were prepared in DMSO. The stock solutions were serially diluted with complete growth medium containing 50 μg/ml of gentamycin to obtain working test solution of 2×10^−5M to obtain final concentration of 1×10^−5 M respectively.
(§3) In vitro cytotoxicity against human cancer cell lines was determined (Monks of al., J. Natl. Cancer Inst. 1991, 83, 757-766). The 100 μL of cell suspension was added to each well of the 96-well tissue culture plate. The cells were incubated for 24 hours (at 37° C. in an atmosphere of 5% CO2 and 90% relative humidity in a carbon dioxide incubator). Test materials in complete growth medium (100 μL) were added after 24 hours incubation to the wells containing cells. The plates were further incubated for 48 hours in a carbon dioxide incubator after addition of test material. The cell growth was stopped by gently layering trichloroacetic acid (50 μL, 50% w/v) on top of the medium in all the wells. The plates were incubated at 4° C. for one hour to fix the cells attached to the bottom of the wells. The liquid of all the wells was then gently decanted and discarded. The plates were washed five times with distilled water and air-dried. Cell growth was measured by staining with sulforhodamine B dye (Skehan et al., J. Natl. Cancer Inst. 1990, 82, 1107-1112). The adsorbed dye was dissolved in Tris-Buffer (100 μL, 0.01M, pH 10.4) and plates were gently stirred for 10 minutes on a mechanical stirrer. The optical density (OD) was recorded on ELISA reader at 540 nm.
(§4) The cell growth was calculated by subtracting mean OD value of respective blank from the mean OD value of experimental set. Percent growth in presence of test material was calculated considering the growth in absence of any test material as 100% and in turn percent growth inhibition in presence of test material was calculated. Suitable blank, controls and positive controls were included in the study.

Ovary IGR-OV-1 = experiment: In vitro cytotoxicity (sulforhodamine B) against human cancer cell lines, Ovary IGR-OV-1; assay type: cell-based; conditions: IGROV-1, Conc 5 × 10^−5 M, 48 hours, read-out: % GROWTH INHIBITION Ovary IGR-OV-1
Description: as §1, §2, §3, §4

Neuroblastoma IMR-32 = experiment: In vitro cytotoxicity (sulforhodamine B) against human cancer cell lines, Neuroblastoma IMR-32; assay type: cell-based; conditions: read-out: % GROWTH INHIBITION Neuroblastoma IMR-32; for inhibition at 50 µM: Conc 5 × 10^−5 M, 48 hours
Description: as §1, §2, §3, §4

Breast MCF-7 = experiment: In vitro cytotoxicity (sulforhodamine B) against human cancer cell lines, Breast MCF-7; assay type: cell-based; conditions: read-out: % GROWTH INHIBITION Breast MCF-7; for inhibition at 50 µM: MCF7, Conc 5 × 10^−5 M, 48 hours
Description: as §1, §2, §3, §4

Prostrate DU-145 = experiment: In vitro cytotoxicity (sulforhodamine B) against human cancer cell lines, Prostrate DU-145; assay type: cell-based; conditions: read-out: % GROWTH INHIBITION Prostrate DU-145; for inhibition at 50 µM: Conc 5 × 10^−5 M, 48 hours
Description: as §1, §2, §3, §4

Lung A-549 = experiment: In vitro cytotoxicity (sulforhodamine B) against human cancer cell lines, Lung A-549; assay type: cell-based; conditions: read-out: % GROWTH INHIBITION Lung A-549; for inhibition at 50 µM: A549, Conc 5 × 10^−5 M, 48 hours
Description: as §1, §2, §3, §4

Colon Colo-205 = experiment: In vitro cytotoxicity (sulforhodamine B) against human cancer cell lines, Colon Colo-205; assay type: cell-based; conditions: read-out: % GROWTH INHIBITION Colon Colo-205; for inhibition at 50 µM: Conc 5 × 10^−5 M, 48 hours
Description: as §1, §2, §3, §4

[1] = system: Ehrlich ascites tumor (EAT) cells; conditions: MTT assay, read-out: IC50 (drug concentration causing 50% growth inhibition of the tumor cells); cited from earlier work
[2] = system: cell line panels consisting of 60 lines; conditions: nine disease-related subpanels; cited from earlier work
P388 leukemia = conditions: NCI Report on NSC 369397, 25 Oct. 1983; cited from earlier work
[3] = Conc 1 × 10^−5 M, positive control

Row | Compound | inhibition at 50 µM (Prostrate PC-3) [%] | inhibition at 50 µM (Ovary IGR-OV-1) [%] | inhibition at 50 µM (Neuroblastoma IMR-32) [%] | inhibition at 50 µM (Breast MCF-7) [%] | inhibition at 50 µM (Prostrate DU-145) [%] | inhibition at 50 µM (Lung A-549) [%] | inhibition at 50 µM (Colon Colo-205) [%] | further results
1 | C=C(C#N)[C@H](O)C[C@H]1O[C@@H]2O[C@]3(C)CC[C@H]4[C@H](C)CC[C@@H]([C@H]1C)[C@@]24OO3 (single isomer, unassigned) [Compound 3b] | 65 | 42 | 48 | 46 | 46 | 66 | 56 | –
2 | C=C(C#N)[C@@H](O)C[C@H]1O[C@@H]2O[C@]3(C)CC[C@H]4[C@H](C)CC[C@@H]([C@H]1C)[C@@]24OO3 (single isomer, unassigned) [Compound 3b′] | 78 | 56 | 62 | 55 | 60 | 77 | 75 | –
3 | O=c1[nH]cc(F)c(=O)[nH]1 [5-Fluorouracil, reference compound] | – | – | – | – | – | – | – | inhibition at 20 µM (Colon Colo-205; Conc 2 × 10^−5 M, positive control): 54%
4 | COc1cccc2c1C(=O)c1c(O)c3c(c(O)c1C2=O)C[C@@](O)(C(=O)CO)C[C@@H]3O[C@H]1C[C@H](N)[C@H](O)[C@H](C)O1 [Adriamycin, reference compound] | – | – | – | – | – | – | – | inhibition at 1 µM (Neuroblastoma IMR-32; Conc 1 × 10^−6 M, positive control): 70%; inhibition at 1 µM (Breast MCF-7; MCF7, Conc 1 × 10^−6 M, positive control): 72%
5 | C[C@@H]1CC[C@H]2[C@@H](C)C(=O)O[C@@H]3O[C@@]4(C)CC[C@@H]1[C@]32OO4 [Artemisinin, artemisinin] | 22 | 26 | 23 | 34 | 38 | 29 | 40 | IC50 [1]: 29.8 µM; anticancer activity on 60 cell line panels [2]: very little anticancer activity; activity against P388 leukemia (P388 leukemia): inactive
6 | C=C(C(=O)OC)[C@H](O)C[C@H]1O[C@@H]2O[C@]3(C)CC[C@H]4[C@H](C)CC[C@@H]([C@H]1C)[C@@]24OO3 [Compound 3a] | – | 63 | 56 | – | – | 70 | – | –
7 | C=C(C(C)=O)[C@H](O)C[C@H]1O[C@@H]2O[C@]3(C)CC[C@H]4[C@H](C)CC[C@@H]([C@H]1C)[C@@]24OO3 [Compound 3c] | 81 | 33 | 79 | 66 | 73 | 85 | 100 | –
8 | C[C@H]1[C@@H](C[C@@H](O)C2=CCCCC2=O)O[C@@H]2O[C@]3(C)CC[C@H]4[C@H](C)CC[C@@H]1[C@@]24OO3 [Compound 3d] | 68 | 60 | 72 | 43 | 52 | 66 | 63 | –
9 | CO[C@@]12[C@H](COC(N)=O)C3=C(C(=O)C(C)=C(N)C3=O)N1C[C@@H]1N[C@@H]12 [Mitomycin, reference compound] | – | – | – | – | – | – | – | inhibition at 10 µM (Prostrate PC-3; [3]): 54%; inhibition at 10 µM (Prostrate DU-145; [3]): 92%
10 | CC(=O)O[C@H]1C(=O)[C@@]2(C)[C@H]([C@H](OC(=O)c3ccccc3)[C@]3(O)C[C@H](OC(=O)[C@H](O)[C@@H](NC(=O)c4ccccc4)c4ccccc4)C(C)=C1C3(C)C)[C@]1(OC(C)=O)CO[C@@H]1C[C@@H]2O [Paclitaxel, reference compound] | – | – | – | – | – | – | – | inhibition at 10 µM (Lung A-549; A549, Conc 1 × 10^−5 M, positive control): 69%
